Experimental data: ChEMBL document CHEMBL1201862, “PubChem BioAssay data set” (2004)
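Each compound was tested at five concentrations against cells in 96-well plates for 48 hours. GI50: concentration for 50% inhibition of growth.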 Activity calls are given as the source filed them. No stated cut-off is given here; in the data, active = GI50 up to about 1.1 µM and inactive = higher.

How the values were obtained:
Test in all cases: growth of human tumour cells (NCI), 48 h
NCI-H460 = test system: NCI-H460
K562 = test system: K562
786-0 = test system: 786-0
NCI-H23 = test system: NCI-H23
KM-20L2 = test system: KM-20L2
UACC-257 = test system: UACC-257
A498 = test system: A498
A549 = test system: A549
SN12C = test system: SN12C
ACHN = test system: ACHN
NCI-H522 = test system: NCI-H522
SK-MEL-28 = test system: SK-MEL-28
SNB-75 = test system: SNB-75
TK-10 = test system: TK-10
SK-MEL-5 = test system: SK-MEL-5
OVCAR-3 = test system: OVCAR-3

Row | Compound | GI50 (NCI-H460) | GI50 (K562) | GI50 (786-0) | GI50 (NCI-H23) | GI50 (KM-20L2) | GI50 (UACC-257) | GI50 (A498) | GI50 (A549) | GI50 (SN12C) | GI50 (ACHN) | GI50 (NCI-H522) | GI50 (SK-MEL-28) | GI50 (SNB-75) | GI50 (TK-10) | GI50 (SK-MEL-5) | GI50 (OVCAR-3)
1 | CCOc1ccc(C(CN2CCOCC2)C(C)=O)cc1OC (centres undefined) | 18.4 µM (inactive) | 3.1 µM (inactive) | 3.53 µM (inactive) | 18.6 µM (inactive) | 18.8 µM (inactive) | 22.1 µM (inactive) | 26.5 µM (inactive) | 24.6 µM (inactive) | 17.4 µM (inactive) | 14.2 µM (inactive) | 1.22 µM (inactive) | 19.1 µM (inactive) | 18.7 µM (inactive) | 17.1 µM (inactive) | 20.1 µM (inactive) | –
2 | CCCCCCC(O)CC[C@H]1CCC[C@@H](C)N1 (some centres undefined) | > 100 µM (inactive) | > 100 µM (inactive) | > 10 µM (inactive) | > 10 µM (inactive) | > 10 µM (inactive) | > 10 µM (inactive) | > 10 µM (inactive) | > 100 µM (inactive) | > 100 µM (inactive) | > 100 µM (inactive) | > 100 µM (inactive) | > 31.6 µM (inactive) | > 31.6 µM (inactive) | > 100 µM (inactive) | 55 µM (inactive) | > 10 µM (inactive)
3 | O=S(=O)(N/N=C/c1ccc(/C=N/NS(=O)(=O)c2ccccc2)cc1)c1ccccc1 | 49.9 µM (inactive) | 29.4 µM (inactive) | 50.6 µM (inactive) | 35.2 µM (inactive) | > 100 µM (inactive) | 53.2 µM (inactive) | 68.5 µM (inactive) | 77.6 µM (inactive) | 42.6 µM (inactive) | 55.8 µM (inactive) | – | 81.7 µM (inactive) | 70.3 µM (inactive) | 60.7 µM (inactive) | 39.4 µM (inactive) | 30.7 µM (inactive)
4 | Cc1cccc(NC(=O)c2cc3cc(/N=N/c4ccccc4Cl)ccc3oc2=O)c1 | 27 µM (inactive) | 61 µM (inactive) | 26.9 µM (inactive) | 19.7 µM (inactive) | > 100 µM (inactive) | 40.4 µM (inactive) | > 100 µM (inactive) | 77.3 µM (inactive) | 30.2 µM (inactive) | 40 µM (inactive) | 22.3 µM (inactive) | 35.4 µM (inactive) | 60.8 µM (inactive) | 36 µM (inactive) | 19.8 µM (inactive) | 26.8 µM (inactive)
5 | O=S1(=O)OCCOS(=O)(=O)C1Cc1ccccc1 | 33.2 µM (inactive) | 61 µM (inactive) | 32.5 µM (inactive) | 64.1 µM (inactive) | 43 µM (inactive) | 53.6 µM (inactive) | 36.8 µM (inactive) | 44.3 µM (inactive) | 46.1 µM (inactive) | 51.5 µM (inactive) | 45.2 µM (inactive) | > 100 µM (inactive) | 47.3 µM (inactive) | > 100 µM (inactive) | – | 20.8 µM (inactive)
6 | Cc1cc(C)n(-c2c(O)ccc(O)c2-n2nc(C)cc2C)n1 | > 100 µM (inactive) | > 100 µM (inactive) | > 100 µM (inactive) | > 100 µM (inactive) | > 100 µM (inactive) | – | > 100 µM (inactive) | > 100 µM (inactive) | > 100 µM (inactive) | > 100 µM (inactive) | > 100 µM (inactive) | > 100 µM (inactive) | > 100 µM (inactive) | > 100 µM (inactive) | > 100 µM (inactive) | > 100 µM (inactive)
7 | CN1CCCc2nc3ccccc3n2C1 | > 100 µM (inactive) | > 100 µM (inactive) | > 100 µM (inactive) | > 100 µM (inactive) | > 100 µM (inactive) | > 100 µM (inactive) | > 100 µM (inactive) | > 100 µM (inactive) | > 100 µM (inactive) | > 100 µM (inactive) | 97.7 µM (inactive) | > 100 µM (inactive) | > 100 µM (inactive) | > 100 µM (inactive) | > 100 µM (inactive) | > 100 µM (inactive)
8 | Cc1cccc(C)c1NC(=O)C(=O)C(C#N)c1ccccc1 (centres undefined) | > 100 µM (inactive) | > 100 µM (inactive) | > 100 µM (inactive) | > 100 µM (inactive) | > 100 µM (inactive) | > 100 µM (inactive) | > 100 µM (inactive) | > 100 µM (inactive) | > 100 µM (inactive) | > 100 µM (inactive) | > 100 µM (inactive) | > 100 µM (inactive) | > 100 µM (inactive) | > 100 µM (inactive) | > 100 µM (inactive) | > 100 µM (inactive)
9 | N#C/C(=C\c1ccccc1Br)C(=O)c1ccccc1 | > 92.9 µM (inactive) | 0.55 µM (active) | 15.8 µM (inactive) | > 40.4 µM (inactive) | > 87.3 µM (inactive) | > 60 µM (inactive) | > 100 µM (inactive) | > 40.7 µM (inactive) | > 43.3 µM (inactive) | > 53.8 µM (inactive) | 58.2 µM (inactive) | > 42.3 µM (inactive) | – | > 63.4 µM (inactive) | 16.5 µM (inactive) | > 41.1 µM (inactive)
10 | Cc1cc(N(CCC#N)CCC#N)ccc1/C=C1/CN(N2C(=O)/C(=C/c3ccc(N(CCC#N)CCC#N)cc3C)N=C2c2ccccc2)C(c2ccccc2)=N1 | > 100 µM (inactive) | > 100 µM (inactive) | 54.3 µM (inactive) | 42.8 µM (inactive) | > 100 µM (inactive) | > 100 µM (inactive) | > 100 µM (inactive) | > 100 µM (inactive) | > 100 µM (inactive) | > 100 µM (inactive) | > 100 µM (inactive) | > 100 µM (inactive) | 16.9 µM (inactive) | 26.5 µM (inactive) | > 100 µM (inactive) | > 100 µM (inactive)
11 | O=c1/c(=C/c2ccccc2O)sc2nc3ccccc3n12 | 35 µM (inactive) | 33.6 µM (inactive) | 53.2 µM (inactive) | 38.7 µM (inactive) | 84.1 µM (inactive) | 62.7 µM (inactive) | 49.4 µM (inactive) | 41.8 µM (inactive) | 33.9 µM (inactive) | 45.6 µM (inactive) | – | 23.6 µM (inactive) | 84.9 µM (inactive) | > 100 µM (inactive) | 30.7 µM (inactive) | 29.7 µM (inactive)
12 | CN1c2ccccc2N(C(=O)c2ccc(Cl)cc2)C(CC(=O)O)c2cccn21 (centres undefined) | > 100 µM (inactive) | > 100 µM (inactive) | > 100 µM (inactive) | > 100 µM (inactive) | > 100 µM (inactive) | > 100 µM (inactive) | > 100 µM (inactive) | > 100 µM (inactive) | > 100 µM (inactive) | > 100 µM (inactive) | > 100 µM (inactive) | > 100 µM (inactive) | > 100 µM (inactive) | > 100 µM (inactive) | > 100 µM (inactive) | > 100 µM (inactive)
13 | CCC(=O)C(C)C(=O)C(=O)C(=O)OC (centres undefined) | > 100 µM (inactive) | > 66.1 µM (inactive) | > 100 µM (inactive) | > 100 µM (inactive) | > 100 µM (inactive) | > 94.6 µM (inactive) | > 100 µM (inactive) | > 100 µM (inactive) | > 100 µM (inactive) | > 100 µM (inactive) | > 100 µM (inactive) | > 100 µM (inactive) | > 100 µM (inactive) | > 100 µM (inactive) | > 100 µM (inactive) | > 100 µM (inactive)
14 | COc1nc2c(nc(N)n2C2OCC(O)C(O)C2O)c(=O)n1C (centres undefined) | > 100 µM (inactive) | > 100 µM (inactive) | > 100 µM (inactive) | > 100 µM (inactive) | > 100 µM (inactive) | > 100 µM (inactive) | > 100 µM (inactive) | > 100 µM (inactive) | > 100 µM (inactive) | > 100 µM (inactive) | > 100 µM (inactive) | > 100 µM (inactive) | > 100 µM (inactive) | > 100 µM (inactive) | > 100 µM (inactive) | > 100 µM (inactive)
15 | CCCOc1ccc(/C(Cl)=C(\C=O)c2ccc(OC)c(OC)c2)cc1OCCC | 7.1 µM (inactive) | 6.1 µM (inactive) | 20.8 µM (inactive) | 3.46 µM (inactive) | 89.7 µM (inactive) | 11 µM (inactive) | 12.3 µM (inactive) | 5.43 µM (inactive) | 9.89 µM (inactive) | 9.31 µM (inactive) | 2 µM (inactive) | 7.59 µM (inactive) | 11.9 µM (inactive) | 28.1 µM (inactive) | 10 µM (inactive) | 23.9 µM (inactive)
16 | Brc1ccc2ns[s+]c2c1 | 3.3 µM (inactive) | 0.321 µM (active) | 98.2 µM (inactive) | 20.9 µM (inactive) | 0.933 µM (active) | 14.9 µM (inactive) | > 100 µM (inactive) | 3.6 µM (inactive) | 14 µM (inactive) | 0.897 µM (active) | 4.79 µM (inactive) | 11.9 µM (inactive) | > 60 µM (inactive) | 5.28 µM (inactive) | – | 29.1 µM (inactive)
17 | Cn1c(=O)nc2n(-c3ccc(F)c(F)c3)c3ccccc3nc-2c1=O | 7.11 µM (inactive) | 15.5 µM (inactive) | 32.7 µM (inactive) | 10.8 µM (inactive) | 4.86 µM (inactive) | 6.68 µM (inactive) | 42.9 µM (inactive) | 15.9 µM (inactive) | 17.6 µM (inactive) | 8.79 µM (inactive) | 10.4 µM (inactive) | – | 23.3 µM (inactive) | 32.3 µM (inactive) | 8.18 µM (inactive) | 3.13 µM (inactive)
